d = 2'-deoxy (DNA); r = 2'-OH (RNA)
Key:
[1] = system: luc+ gene; experiment: Inhibition of luciferase gene expression by siRNA in liver cells in vivo (pMIR48 co-injected, tail vein); design: species or system ICR mice; conditions: liver one day after injection
Protocol: Plasmid pMIR48 (10 μg), containing the luc+ coding region (Promega Corp.) and a chimeric intron downstream of the cytomegalovirus major immediate-early enhancer/promoter, was mixed with 0.5 or 5 μg siRNA-luc+, diluted in 1-3 ml Ringer's solution (147 mM NaCl, 4 mM KCl, 1.13 mM CaCl2) and injected into the tail vein of ICR mice over […]. One day after injection, the livers were harvested and homogenized in lysis buffer (0.1% Triton X-100, 0.1 M K-phosphate, 1 mM DTT, pH 7.8). Insoluble material was cleared by centrifugation. 10 μl of the cellular extract or extract diluted 10× was analyzed for luciferase activity using the Enhanced Luciferase Assay kit (Mirus).

[2] = system: Luc+ expression; experiment: In vivo delivery of siRNA to mouse liver cells using TransIT In Vivo, dual luciferase; design: species or system ICR mice; conditions: for % inhibition of Luc+ expression: normalized to no siRNA control
Protocol: In vivo delivery of siRNA to mouse liver cells using TransIT™ In Vivo. 10 μg pGL3 control and 1 μg pRL-SV40 were complexed with 11 μl TransIT™ In Vivo in 2.5 ml total volume according the manufacturer's recommendation (Mirus Corporation, Madison, Wis.). For siRNA delivery, 10 μg pGL3 control, 1 μg pRL-SV40, and either 5 μg siRNA-Luc+ or 5 μg control siRNA were complexed with 16 μl TransIT™ In vivo in 2.5 ml total volume. Particles were injected over ˜7 s into the tail vein of 25-30 g ICR mice as described in Example 1. One day after injection, the livers were harvested and homogenized as described in Example 1. Luc+ and Renilla Luc activities were assayed using the Dual Luciferase Reporter Assay System (Promega).

[3] = system: Luc+ expression; experiment: Dual luciferase (pGL3 control + pRL-SV40) co-injected with siRNA, increased-pressure tail vein injection, organs assayed; assay type: in vivo, mice; conditions: one day; for inhibition of target Luc+ expression (Luc+/Renilla Luc ratio): liver, normalized to no siRNA control
Protocol: Inhibition of Luciferase expression by siRNA is gene specific in liver in vivo. Two plasmids were injected simultaneously either with or without siRNA-luc+ as described in Example 1. The first plasmid, pGL3 control (Promega Corp, Madison, Wis.), contains the luc+ coding region and a chimeric intron under transcriptional control of the simian virus 40 enhancer and early promoter region. The second, pRL-SV40, contains the coding region for the Renilla reniformis luciferase under transcriptional control of the Simian virus 40 enhancer and early promoter region.
10 μg pGL3 control and 1 μg pRL-SV40 was injected as described in Example 1 with 0, 0.5 or 5.0 μg siRNA-luc+. One day after injection, the livers were harvested and homogenized as described in Example 1. Luc+ and Renilla Luc activities were assayed using the Dual Luciferase Reporter Assay System (Promega).
Inhibition of Luciferase expression by siRNA is gene specific and siRNA specific in liver in vivo. 10 μg pGL3 control and 1 μg pRL-SV40 were injected as described in Example 1 with either 5.0 μg siRNA-luc+ or 5.0 control siRNA-ori. One day after injection, the livers were harvested and homogenized as described in Example 1. Luc+ and Renilla Luc activities were assayed using the Dual Luciferase Reporter Assay System (Promega). Ratios of Luc+ to Renilla Luc were normalized to the siRNA-ori control. siRNA-Luc+ inhibited Luc+ expression in liver by 93% compared to siRNA-ori indicating inhibition by siRNAs is sequence specific in this organ.
In vivo delivery of siRNA by increased-pressure intravascular injection results in strong inhibition of target gene expression in a variety of organs. 10 μg pGL3 Control and 1 μg pRL-SV40 were co-injected with 5 μg siRNA-Luc+ or 5 μg control siRNA (siRNA-ori) targeted to sequence in the plasmid backbone as in example 1. One day after injection, organs were harvested and homogenized and the extracts assayed for target firefly luciferase+ activity and control Renilla luciferase activity. Firefly luciferase+activity was normalized to that Renilla luciferase activity in order to compensate for differences in transfection efficiency between animals.

[4] = system: Luc+ expression; experiment: Dual luciferase in muscle after iliac artery delivery of plasmids and siRNA; assay type: in vivo, rats; conditions: 5.0 μg siRNA, four days, compared to control siRNA-ori
Protocol: Inhibition of Luciferase expression by siRNA is gene specific and siRNA specific in muscle in vivo after arterial delivery. 10 μg pGL3 control and 1 μg pRL-SV40 with 5.0 μg siRNA-luc+ or 5.0 siRNA-ori were injected into iliac artery of rats under increased pressure. Specifically, animals were anesthetized and the surgical field shaved and prepped with an antiseptic. The animals were placed on a heating pad to prevent loss of body heat during the surgical procedure. A midline abdominal incision will be made after which skin flaps were folded away and held with clamps to expose the target area. A moist gauze was applied to prevent excessive drying of internal organs. Intestines were moved to visualize the iliac veins and arteries. Microvessel clips were placed on the external iliac, caudal epigastric, internal iliac, deferent duct, and gluteal arteries and veins to block both outflow and inflow of the blood to the leg. An efflux enhancer solution (e.g., 0.5 mg papaverine in 3 ml saline) was injected into the external iliac artery though a 25 g needle, followed by the plasmid DNA and siRNA containing solution (in 10 ml saline) 1-10 minutes later. The solution was injected in approximately 10 seconds. The microvessel clips were removed 2 minutes after the injection and bleeding was controlled with pressure and gel foam. The abdominal muscles and skin were closed with 4-0 dexon suture. […]

[5] = 5 μg siRNA with TransIT In Vivo, liver, one day
[6] = Example 4: 5 μg siRNA, compared to control siRNA-ori

siRNA-luc+: annealed oligomers SEQ ID 4 and SEQ ID 5 containing luc+ coding sequence, positions 155-173 of the luc+ reading frame (chain 1 CUUACGCUGAGUACUUCGATT; chain 2 UCGAAGUACUCAGCGUAAGTT; sugars from the 5' end r19 d2, backbone not given here; listed as Photinus pyralis)
inhibition of Luc+ activity ([1]; 0.5 μg siRNA co-injected with 10 μg pMIR48, tail vein, vs 10 μg pMIR48 alone): 69%
inhibition of Luc+ activity ([1]; 5 μg siRNA co-injected with 10 μg pMIR48, tail vein): 93%
Luciferase expression (RLUs) [2, 5]: 853332 RLUs
Renilla expression (RLUs) [2, 5]: 4124726 RLUs
% inhibition of Luc+ expression ([2]; 5 μg siRNA with TransIT In Vivo): 96%
% inhibition of Luc+ expression ([2]; 5 μg siRNA with TransIT In Vivo, listed as siRNA-Luc+): 96.0%
relative LUC+ expression ([2]; Luc+ to Renilla Luc ratio, liver, one day): 0.2069
inhibition of target Luc+ expression (Luc+/Renilla Luc ratio) ([3]; 0.5 μg co-injected siRNA): 73%
inhibition of target Luc+ expression (Luc+/Renilla Luc ratio) ([3]; 5.0 μg co-injected siRNA): 82%
inhibition of Luc+ expression in liver ([3]; Example 3: 5.0 μg siRNA, compared to siRNA-ori): 93%
inhibition of firefly luciferase+ activity, heart [3, 6]: 74%
inhibition of firefly luciferase+ activity, kidney [3, 6]: 87%
inhibition of firefly luciferase+ activity, liver [3, 6]: 95%
inhibition of firefly luciferase+ activity, lung [3, 6]: 81%
inhibition of firefly luciferase+ activity, pancreas [3, 6]: 92%
inhibition of firefly luciferase+ activity, spleen [3, 6]: 77%
inhibition of Luc+ expression in gastrocnemius [4]: 92%
inhibition of Luc+ expression in quadriceps [4]: 85%

Reference: patent US20050037989A1, “Inhibition of gene function by delivery of polynucleotide-based gene expression inhibitors to mammalian cells in vivo” (priority 2001, published 2005)
